This note sets out measurements from patent US20130217664A1, “NOVEL COMPOUNDS USEFUL FOR THE TREATMENT OF DEGENERATIVE AND INFLAMMATORY DISEASES” (priority 2012, published 2013).

One assay concerns BA/F3 cell line. The assay can be described thus: BA/F3 viability assay. The note with it: Mus musculus, BaF3, 48 h, read-out: BA/F3 IC50.
For another assay, the system named is CTLL-2 cell line. The assay is described as follows: CTLL2 viability assay. The note with it: Mus musculus, IL-2 dependent CTLL2 viability, 24 h, ATP-lite. Format: cell-based. The source says:
The protocol describes the methods to analyse the activity of compounds on their ability to sustain the IL2-dependent viability of CTLL2.
Final DMSO concentration was 0.1%.

Assay [1] has as its system pSTAT1(2)-luciferase reporter in HeLa cells triggered with human OSM. The assay can be described thus: JAK-STAT signalling assay. The settings on record: HeLa cells, pSTAT1(2)-luciferase reporter, human OSM 33 ng/mL, read-out: JAK-STAT IC50. The format is cell-based. The method in brief:
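HeLa cells transiently co-transfected with pSTAT1(2)-luciferase and LacZ control reporter, preincubated with compound 60 min, then stimulated with human OSM (33 ng/mL final) overnight at 37 °C. Luciferase read by luminescence; percent inhibition from vehicle and no-trigger controls, EC50 from dose-response.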
(Reporter assays use an easily measured gene product as a stand-in for the process of interest.)

Another assay deals with T1, human TYK2 (Homo sapiens, UniProt P29597).
T1 construct: catalytic domain (amino acids 871-1187; catalog number 08-147); purchased Carna Biosciences 08-147
T1 sequence (P29597 871-1187): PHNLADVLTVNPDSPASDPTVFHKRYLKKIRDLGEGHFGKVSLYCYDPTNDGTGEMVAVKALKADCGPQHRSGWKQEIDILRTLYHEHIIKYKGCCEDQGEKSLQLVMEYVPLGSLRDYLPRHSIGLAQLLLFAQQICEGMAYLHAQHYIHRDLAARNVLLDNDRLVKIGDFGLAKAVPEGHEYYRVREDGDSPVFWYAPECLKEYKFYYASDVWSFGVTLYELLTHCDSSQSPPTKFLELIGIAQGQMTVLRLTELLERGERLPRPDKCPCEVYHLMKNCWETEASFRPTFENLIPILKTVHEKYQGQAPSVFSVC
The assay is described as follows: TYK2 inhibition assay. The format is biochemical. The note with it: recombinant human TYK2 catalytic domain, polyGT substrate. In outline:
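Radiometric kinase reaction run 90 min at 30 °C, stopped with phosphoric acid, washed and scintillation-counted.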

A further assay addresses T2, human JAK3 (Homo sapiens, UniProt P52333).
T2 construct: catalytic domain (amino acids 781-1124; catalog number PV3855); purchased Invitrogen PV3855
The assay can be described thus: JAK3 inhibition assay. The format is biochemical. The settings on record: recombinant human JAK3 catalytic domain; polyGT substrate. In outline:
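Radiometric kinase assay: 0.5 ng JAK3 with 2.5 μg polyGT in Tris pH 7.5/MgCl2 buffer, 1 μM ATP plus 0.25 μCi 33P-γ-ATP, 1% DMSO, 45 min at 30 °C, stopped with phosphoric acid.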

The next assay concerns the target T3, human JAK1 (Homo sapiens, UniProt P23458).
T3 construct: catalytic domain, amino acids 866-1154; catalog number PV4774; purchased Invitrogen PV4774
The assay is described as follows: JAK1 inhibition assay (polyGT substrate / Ulight-JAK1 peptide). Format: biochemical. The settings on record: recombinant human JAK1 catalytic domain; polyGT or Ulight-JAK1 peptide assay. In outline:
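Two formats. PolyGT radiometric: 45 min at 30 °C, stopped with phosphoric acid, counted as cpm. Ulight-JAK1 peptide: 60 min at room temperature, stopped with Eu-anti-phosphotyrosine/EDTA, read as RFU. Percent inhibition normalised to vehicle and 10 μM staurosporine.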

Read-outs that look alike come from different tables or passages of the source.

T2 sequence (P52333 781-1124): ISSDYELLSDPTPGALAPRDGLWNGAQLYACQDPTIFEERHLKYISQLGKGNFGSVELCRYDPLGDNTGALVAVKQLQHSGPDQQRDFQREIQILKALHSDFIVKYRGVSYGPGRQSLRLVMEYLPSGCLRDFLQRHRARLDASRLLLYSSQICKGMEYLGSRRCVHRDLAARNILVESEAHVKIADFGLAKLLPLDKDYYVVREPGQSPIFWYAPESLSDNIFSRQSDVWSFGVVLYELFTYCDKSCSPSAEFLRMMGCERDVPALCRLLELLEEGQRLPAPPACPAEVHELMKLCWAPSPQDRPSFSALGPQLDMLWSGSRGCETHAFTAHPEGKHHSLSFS
T3 sequence (P23458 866-1154): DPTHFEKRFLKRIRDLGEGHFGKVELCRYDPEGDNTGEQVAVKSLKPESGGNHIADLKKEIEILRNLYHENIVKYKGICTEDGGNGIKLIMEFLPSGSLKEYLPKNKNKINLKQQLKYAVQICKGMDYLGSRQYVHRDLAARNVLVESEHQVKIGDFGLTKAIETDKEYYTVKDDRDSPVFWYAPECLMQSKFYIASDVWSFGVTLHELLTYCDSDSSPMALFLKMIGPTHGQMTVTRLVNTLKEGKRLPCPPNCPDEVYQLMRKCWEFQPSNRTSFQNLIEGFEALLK

`CCc1cc(C2CCOCC2)ccc1N(C)c1cc2c(cn1)ncn2C` [Compound 186, N-(2-Ethyl-4-(tetrahydro-2H-pyran-4-yl)phenyl)-N,1-dimethyl-1H-imidazo[4,5-c]pyridin-6-amine]: the IC50 with BA/F3 cell line was 1000 to 5000 nM; in the assay on CTLL-2 cell line, more than 1000 nM; in assay [1] (Homo sapiens, HeLa) it was 1 to 500 nM; on human TYK2 it was 0.01 to 100 nM; on human JAK3 it was 101 to 500 nM; at human JAK1, 0.01 to 100 nM.
In the case of `CCc1cc(CNS(C)(=O)=O)ccc1N(C)c1cc2c(cn1)ncn2C` [Compound 190, N-(3-Ethyl-4-(methyl(1-methyl-1H-imidazo[4,5-c]pyridin-6-yl)amino)benzyl)methane sulfonamide], the IC50 with BA/F3 cell line was 1000 to 5000 nM; with CTLL-2 cell line, more than 1000 nM; in assay [1] (Homo sapiens, HeLa) it was 1 to 500 nM; on human TYK2, 0.01 to 100 nM; at human JAK3 it was 0.01 to 100 nM; on human JAK1, 0.01 to 100 nM.
On to `CCc1cc(-c2cncc(C(F)(F)F)c2)ccc1N(C)c1cc2c(cn1)ncn2C` [Compound 194, N-(2-ethyl-4-(5-(trifluoromethyl)pyridin-3-yl)phenyl)-N,1-dimethyl-1H-imidazo[4,5-c]pyridin-6-amine], for which the IC50 in the assay with BA/F3 cell line is 1000 to 5000 nM; in the assay on CTLL-2 cell line, more than 1000 nM; in assay [1] (Homo sapiens, HeLa), more than 1000 nM; at human TYK2 it was 501 to 1000 nM; on human JAK3 it was more than 1000 nM; on human JAK1 it was 0.01 to 100 nM.
In the case of `CCc1cc(C2=CCN(C(=O)CC#N)CC2)ccc1N(C)c1cc2c(cn1)ncn2C` [Compound 195, 3-(4-(3-Ethyl-4-(methyl(1-methyl-1H-imidazo[4,5-c]pyridin-6-yl)amino)phenyl)-5,6-dihydropyridin-1(2H)-yl)-3-oxopropanenitrile], the IC50 in the assay with BA/F3 cell line is 1000 to 5000 nM; in the assay on CTLL-2 cell line, more than 1000 nM; in assay [1] (Homo sapiens, HeLa), 501 to 1000 nM; at human TYK2 it was 0.01 to 100 nM; on human JAK3, 101 to 500 nM; on human JAK1 it was 0.01 to 100 nM.
With `CCc1cc(C2=CCN(C(=O)C(F)F)CC2)ccc1N(C)c1cc2c(cn1)ncn2C` [Compound 197, 1-(4-(3-ethyl-4-(methyl(1-methyl-1H-imidazo[4,5-c]pyridin-6-yl)amino)phenyl)-5,6-dihydropyridin-1(2H)-yl)-2,2-difluoroethanone], the IC50 in the assay on BA/F3 cell line is 1000 to 5000 nM; with CTLL-2 cell line it was 501 to 1000 nM; in assay [1] (Homo sapiens, HeLa) it was 1 to 500 nM; on human TYK2, 0.01 to 100 nM; on human JAK3, 0.01 to 100 nM; on human JAK1, 0.01 to 100 nM.
On to `CCc1cc(C2=CCN(C(=O)COC)CC2)ccc1N(C)c1cc2c(cn1)ncn2C` [Compound 199, 1-(4-(3-ethyl-4-(methyl(1-methyl-1H-imidazo[4,5-c]pyridin-6-yl)amino)phenyl)-5,6-dihydropyridin-1(2H)-yl)-2-methoxyethanone], for which the IC50 was 1000 to 5000 nM with BA/F3 cell line; more than 1000 nM in the assay with CTLL-2 cell line; 1 to 500 nM in assay [1] (Homo sapiens, HeLa); 0.01 to 100 nM on human TYK2; 0.01 to 100 nM at human JAK3; 0.01 to 100 nM on human JAK1.
As to `CCc1cc(-c2cn[nH]c2)ccc1N(C)c1cc2c(cn1)ncn2C` [Compound 210, N-(2-ethyl-4-(1H-pyrazol-4-yl)phenyl)-N,1-dimethyl-1H-imidazo[4,5-c]pyridin-6-amine], the IC50 is 1 to 1000 nM with BA/F3 cell line; more than 1000 nM in the assay with CTLL-2 cell line; 1 to 500 nM in assay [1] (Homo sapiens, HeLa); 0.01 to 100 nM on human TYK2; 0.01 to 100 nM on human JAK3; 0.01 to 100 nM at human JAK1.
In the case of `CCc1cc(CNS(=O)(=O)C2CC2)ccc1N(C)c1cc2c(cn1)ncn2C` [Compound 227, N-(3-ethyl-4-(methyl(1-methyl-1H-imidazo[4,5-c]pyridin-6-yl)amino)benzyl)cyclopro-panesulfonamide], the IC50 is more than 5000 nM with BA/F3 cell line; more than 1000 nM in the assay with CTLL-2 cell line; 501 to 1000 nM in assay [1]; 101 to 500 nM on human TYK2; 501 to 1000 nM on human JAK3; 0.01 to 100 nM at human JAK1.
`CCc1cc(CNS(=O)(=O)CC#N)ccc1N(C)c1cc2c(cn1)ncn2C` [Compound 228, 1-cyano-N-(3-ethyl-4-(methyl(1-methyl-1H-imidazo[4,5-c]pyridin-6-yl)amino)benzyl)methane-sulfonamide]: the IC50 with BA/F3 cell line was more than 5000 nM; in the assay with CTLL-2 cell line, 1 to 500 nM; in assay [1] (Homo sapiens, HeLa), 1 to 500 nM; at human TYK2, 0.01 to 100 nM; at human JAK3 it was 0.01 to 100 nM; on human JAK1, 0.01 to 100 nM.
As for `CCc1cc(C2=CCN(C(=O)C3(O)CC3)CC2)ccc1N(C)c1cc2c(cn1)ncn2C` [Compound 229, (4-(3-ethyl-4-(methyl(1-methyl-1H-imidazo[4,5-c]pyridin-6-yl)amino)phenyl)-5,6-dihydropyridin-1(2H)-yl)(1-hydroxycyclopropyl)meth-anone], the IC50 is 1000 to 5000 nM in the assay with BA/F3 cell line; more than 1000 nM in the assay with CTLL-2 cell line; 1 to 500 nM in assay [1] (Homo sapiens, HeLa); 0.01 to 100 nM on human TYK2; 101 to 500 nM on human JAK3; 0.01 to 100 nM on human JAK1.
In the case of `CCc1cc(CNS(=O)(=O)N2CCCCC2)ccc1N(C)c1cc2c(cn1)ncn2C` [Compound 243, N-(3-ethyl-4-(methyl(1-methyl-1H-imidazo[4,5-c]pyridin-6-yl)amino)benzyl)piperidine-1-sulfonamide], the IC50 is 1000 to 5000 nM with BA/F3 cell line; more than 1000 nM in the assay on CTLL-2 cell line; 1 to 500 nM in assay [1] (Homo sapiens, HeLa); 101 to 500 nM at human TYK2; 101 to 500 nM at human JAK3; 0.01 to 100 nM at human JAK1.
With `CCc1cc(CNS(=O)(=O)CC(F)(F)F)ccc1N(C)c1cc2c(cn1)ncn2C` [Compound 244, N-(3-ethyl-4-(methyl(1-methyl-1H-imidazo[4,5-c]pyridin-6-yl)amino)benzyl)-2,2,2-trifluoroethane sulfonamide], the IC50 was 1000 to 5000 nM with BA/F3 cell line; more than 1000 nM with CTLL-2 cell line; 1 to 500 nM in assay [1] (Homo sapiens, HeLa); 0.01 to 100 nM at human TYK2; 0.01 to 100 nM on human JAK3; 0.01 to 100 nM at human JAK1.
As for `CCc1cc(CNS(=O)(=O)C(C)C)ccc1N(C)c1cc2c(cn1)ncn2C` [Compound 245, N-(3-ethyl-4-(methyl(1-methyl-1H-imidazo[4,5-c]pyridin-6-yl)amino)benzyl)propane-2-sulfonamide], the IC50 in the assay with BA/F3 cell line is 1000 to 5000 nM; with CTLL-2 cell line, more than 1000 nM; in assay [1] (Homo sapiens, HeLa) it was 501 to 1000 nM; on human TYK2 it was 101 to 500 nM; at human JAK3, 101 to 500 nM; at human JAK1, 0.01 to 100 nM.
On to `CCc1cc(C2=CCN(C(=O)[C@@H](C)O)CC2)ccc1N(C)c1cc2c(cn1)ncn2C` [Compound 248, (R)-1-(4-(3-ethyl-4-(methyl(1-methyl-1H-imidazo[4,5-c]pyridin-6-yl)amino)phenyl)-5,6-dihydropyridin-1(2H)-yl)-2-hydroxypropan-1-one], for which the IC50 was 1000 to 5000 nM in the assay with BA/F3 cell line; more than 1000 nM with CTLL-2 cell line; 1 to 500 nM in assay [1] (Homo sapiens, HeLa); 0.01 to 100 nM on human TYK2; 0.01 to 100 nM on human JAK3; 0.01 to 100 nM on human JAK1.
For the molecule `CCc1cc(CNS(=O)(=O)CC)ccc1N(C)c1cc2c(cn1)ncn2C` [Compound 253, N-(3-ethyl-4-(methyl(1-methyl-1H-imidazo[4,5-c]pyridin-6-yl)amino)benzyl)ethane-sulfonamide], the IC50 is more than 5000 nM in the assay on BA/F3 cell line; more than 1000 nM with CTLL-2 cell line; 1 to 500 nM in assay [1] (Homo sapiens, HeLa); 0.01 to 100 nM on human TYK2; 0.01 to 100 nM on human JAK3; 0.01 to 100 nM at human JAK1.
With `CCc1cc(CNC(=O)COC)ccc1N(C)c1cc2c(cn1)ncn2C` [Compound 254, N-(3-Ethyl-4-(methyl(1-methyl-1H-imidazo[4,5-c]pyridin-6-yl)amino)benzyl)-2-methoxyacetamide], the IC50 was more than 5000 nM in the assay with BA/F3 cell line; more than 1000 nM in the assay on CTLL-2 cell line; more than 1000 nM in assay [1] (Homo sapiens, HeLa); more than 1000 nM at human TYK2; more than 1000 nM at human JAK3; 0.01 to 100 nM at human JAK1.
